Results taken from article PMC8804135 (Neurotherapeutics, 2021).
Numbered stars: 1 amine (or outer) side, 2 acyl side, 3 side chain; on linkers, the order of the positions; unused ones are H or OH. Bridge positions count the residues as written; N and C are the ends. Square brackets hold non-standard residues; d marks the D form. Peptide text beside a SMILES is read from it. dAbu(3S-yl) = C[C@@H]([C@@H](N[*:1])C(=O)[*:2])[*:3]; pGlu = O=C1CC[C@@H](C(=O)O)N1

Tests used:
[1] = Hydrophobicity and solubility of the peptide for intranasal formulation; type: physicochemical; settings: in 10% (2-hydroxypropyl)-ß-cyclodextrin (HBC)
Procedure: (§1) For intranasal delivery, 1 mg of M89b was first dissolved in 566 µl 2,2,2-trifluorethanol, 566 µl 10% (2-hydroxypropyl)-ß-cyclodextrin (HBC), and 1 µl acetic acid and incubated at 60 °C for 20 min. Another 566 µl of 10% HBC were added. The peptide was then dried in a speed-vac, and the dried pellet was dissolved in 1132 µl water by vortexing and incubation at 60 °C. M871 and GALP were purchased from GL Biochem. M871 was dissolved in saline containing 10% HBC. GALP was dissolved in saline containing 5% α-cyclodextrin.

GAL3R = target: T1, GAL3R (Homo sapiens, UniProt O60755); test: SRE luciferase reporter assay, GAL3R-transfected HEK293 Gqi cells; settings: transiently transfected HEK293 Gqi cells; up to 10 µM, 5 h
T1 sequence (O60755 1-368): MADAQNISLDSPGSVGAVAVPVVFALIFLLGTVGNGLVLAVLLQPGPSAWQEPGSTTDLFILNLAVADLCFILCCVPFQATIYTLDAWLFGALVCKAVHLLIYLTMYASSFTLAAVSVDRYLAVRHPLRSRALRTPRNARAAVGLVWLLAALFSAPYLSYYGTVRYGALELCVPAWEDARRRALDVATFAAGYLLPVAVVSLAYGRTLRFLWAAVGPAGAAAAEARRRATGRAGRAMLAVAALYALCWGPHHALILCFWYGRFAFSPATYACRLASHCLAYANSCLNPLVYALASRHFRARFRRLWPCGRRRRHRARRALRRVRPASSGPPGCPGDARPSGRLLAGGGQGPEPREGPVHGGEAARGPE

[2] = system: non-fasted male Wistar rats; test: Food intake and body weight after intranasal application of peptides; type: in vivo, rat
Procedure: as §1
In vivo experiments involving intranasal treatment of rats and measurement of feeding behavior were performed at the Institute for Translational Medicine, University of Pécs, Pécs, Hungary. Experiments were approved by the National Ethical Council for Animal Research (permit number, BA 02/2000–11/2018). They were also in accord with the directives of the European Communities Council on the protection of animals used for scientific purposes (86/609/EEC, Directive 2010/63/EU of the European Parliament and of the Council).
Spontaneous food intake was measured in non-fasted male Wistar rats (3 months old) for 24 h following intranasal application of peptide solutions by an automated FeedScale System (Columbus, OH). Each group of animals (6–9 rats/group) was habituated to the individual chambers of the FeedScale System until daily food intake and changes in the body weight of the animals had normalized. This habituation, which lasted for a minimum of 2 weeks, allowed adaptation to the environment, to the powdered chow and to the feeder. This powdered form of chow prevented food hoarding. A special digital scale under the cages provided precise automated measurement and continuous recording of the amount of consumed food. During the measurement of the cumulative 24 h food intake, data were collected every 30 min.
Intranasal applications were performed at 06:00 PM at the onset of the active nighttime period of rats. First, the body weight of animals was recorded, and then they were intraperitoneally anesthetized with ketamine (52 mg/kg) and xylazine (9 mg/kg). For the intranasal application of peptides, rats were placed on their backs, and 25–30 µl of peptide solution was injected gently per nostril (total volume of 50–60 μl per rat depending on the administered peptides) using a 10-μl pipette. The following solutions were applied: M89b (25 nmol in 60 µl saline containing 10% HBC); GALP (17.5 nmol in 50 µl saline containing 5% α-cyclodextrin); M871 (219 nmol in 60 µl 10% HBC); and M89b + M871 (25 nmol M89b + 219 nmol M871 in 60 µl 10% HBC). […] At 24 h post-treatment, the body weight of the animals was measured.
Statistical analysis was performed with SPSS 11.0. […] Body weight data were analyzed by applying a one-way ANOVA with Tukey’s post hoc test. […]

GAL1R [3] = target: T2, GAL1R (Homo sapiens, UniProt P47211); test: SRE luciferase reporter assay, GAL1R-transfected HEK293 Gqi cells; settings: transiently transfected HEK293 Gqi cells; up to 10 µM, 5 h
T2 sequence (P47211 1-349): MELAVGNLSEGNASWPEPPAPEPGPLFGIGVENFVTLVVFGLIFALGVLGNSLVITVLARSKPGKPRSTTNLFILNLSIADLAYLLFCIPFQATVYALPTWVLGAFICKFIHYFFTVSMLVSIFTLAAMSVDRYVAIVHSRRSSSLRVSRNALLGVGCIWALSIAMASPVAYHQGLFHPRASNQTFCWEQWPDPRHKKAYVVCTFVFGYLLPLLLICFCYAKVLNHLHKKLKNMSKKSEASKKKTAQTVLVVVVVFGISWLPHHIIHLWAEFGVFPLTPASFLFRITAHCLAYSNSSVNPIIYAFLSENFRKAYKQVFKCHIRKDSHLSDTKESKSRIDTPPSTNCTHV

GAL1R [4] = target: T2, GAL1R; test: cAMP Hunter eXpress GAL1R CHO-K1 GPCR assay (inhibition of forskolin-induced cAMP); type: cell-based; set-up: expressed in transfected cells; settings: Table 3; CHO-K1 cells expressing GAL1R; 20 µM forskolin; 10 µM to 5 nM; (average) ratio, (n) in cell = number of assays; NA = ratio above 1000
Procedure: To evaluate the ability of lanthipeptides to […] via GAL1R signaling, we used the cAMP Hunter™ eXpress GAL1R CHO-K1 GPCR Assay from Eurofins-DiscoverX. The assay was performed according to the manufacturer’s instructions. Briefly, for one assay, CHO-K1 cells expressing GAL1R were diluted in AssayComplete™ Cell Plating 2 Reagent, and 100 µl was seeded into each well of a 96-well plate. The plate was incubated at 37 °C, 5% CO2 in a humidified incubator. After 24 h of incubation, the media was aspirated, and 45 µl cell assay buffer/antibody mixture was added to all wells. […] Fifteen µl of the serial dilutions was applied in duplicates to the cells. The concentration of forskolin in the assay was 20 µM. The agonists were incubated for 30 min at 37 °C. Next, 15 µL Antibody Solution and 60 μL cAMP Working Detection Solution were added, and the plate was incubated for 1 h in the dark at room temperature. Finally, 60 μL cAMP Solution A was added and, after 3 h of incubation in the dark at room temperature, the chemiluminescent signal was read with a Synergy HT Biotek reader.

- Solubility [1]: improved solubility
- Stimulation of GAL3R, luciferase reporter (GAL3R): inability to stimulate
- Stimulation of GAL1R, luciferase reporter (GAL1R [3]): inability to stimulate
Compound: CC(C)C[C@H](NC(=O)[C@H](CC(C)C)NC(=O)[C@H](Cc1ccc(O)cc1)NC(=O)CNC(=O)[C@H](C)NC(=O)[C@H](C)NC(=O)[C@H](CC(N)=O)NC(=O)[C@H](CC(C)C)NC(=O)[C@H](CC(N)=O)NC(=O)[C@H](Cc1c[nH]c2ccccc12)NC(=O)[C@@H]1CCC(=O)N1)C(=O)N[C@@H](C)C(=O)N[C@H]1C(=O)N[C@@H](Cc2c[nH]cn2)C(=O)N[C@@H](C)C(=O)N[C@H](C(=O)NCC(=O)O)CS[C@H]1C [Variant M89b, G1pE-T3N-S6A-G12A-methyllanthionine[13–16]-galanin-(1–17)] ([pGlu]WNLNAAGYLLA[dAbu(3S-yl)]HACG-OH; thioether 13-16; C-terminus assumed)
- Loss of initial body weight at 24 h post-treatment ([2]; intranasal 25 nmol in 10% HBC, p = 0.009 vs. vehicle): 2.6%
- Reduction of 24 h food intake compared to vehicle ([2]; intranasal 25 nmol in 60 µl saline with 10% HBC, p = 0.006 vs vehicle): 23%
- EC50 ratios to Gal-(1-15), GAL1R cAMP (GAL1R [4]): NA (3) (NA is not active; ratios above 1000 were considered to be not active)
